Entries after “also recorded” stand apart in the source; their conditions may differ. Where two headings read alike, the source gives them in different places.
What was measured:
[1] = target: T1, acetylcholinesterase (AChE) (Homo sapiens, UniProt P22303); conditions: compared with the negative enantiomer; Pei, Greig et al. (1995); cited from earlier work
T1 construct: host or cells: human erythrocytes

[2] = Randomized, double-blind, placebo-controlled 12-week study in mild to moderate Alzheimer's disease; type: in vivo, human; conditions: oral, 12 weeks
[3] = target: T1, acetylcholinesterase (AChE); test: IC50 for AChE inhibition, phenserine enantiomers; type: biochemical
Description: (§1) For example, the pharmacological activity of each compound may be expressed as the IC50, which is defined as the concentration (e.g., in nanomoles) required to inhibit 50% of the enzyme activity of ACHE or produce a 50% reduction in β-APP or Aβ. The AChE inhibition IC50 values may be determined by measuring the enzyme activity at each concentration and expressed as a percentage of the activity determined in the absence of each compound. This then is transformed into a logit format, where logit=In (% activity/[100−% activity]), and was plotted as a finction of the log concentration of the compound (Id.). IC50 values (i.e., logit=In (50/[100−50 =0) were determined only from correlation coefficients (r^2) of […] and when more than 50% inhibition was achieved from duplicate samples.

β-APP [4] = test: β-APP production on coadministration of (+)-phenserine with an AChEI (Example III); type: cell-based
Description: The compounds may be tested by the procedure utilized in Example II.

Aβ [5] = test: Aβ levels in neuroblastoma cell culture (ELISA); type: cell-based, human; conditions: for secreted levels of Aβ: SK-N-SH cells, 5 or 50 μM, up to 16 hours, vs control, no cellular toxicity (LDH), FIG. 4/5
Method: (§2) SK—N—SH neuroblastoma cells were cultured on 60 mm dishes at a concentration of 3×10^6 cells, and SH—SY-5Y neuroblastoma cells were plated in 100 mm dishes at a concentration of 3×10^5 cells. The cells were allowed to grow in complete media (10% FBS, 2 mM glutamine in DMEM) for 3 to 4 days until they reached 70% confluence.
Total Aβ Assay: Total Aβ peptide levels in SH—SY-5Y and SK—N—SH cultured samples were assayed by a sensitive ELISA assay (Suzuki et al., (1994) An Increased Percentage of Long Amyloid Beta Protein Secreted by Familial Amyloid Beta Protein Precursor (beta APP717) Mutants, Science 264:1336-1340). For total Aβ peptide measurements, a sandwich immunoassay with rabbit polyclonal antibody to residues 1-40 of Aβ or a monoclonal antibody to residues 17-25 of Aβ as a capture antibody for all species of Aβ peptide, Aβ1-40 and Aβ1-42, was used, and the values were expressed as the mean of six independent assays.

β-APP [6] = test: β-APP levels in neuroblastoma cell culture (Western blot, mAb 22C11); type: cell-based, human; conditions: for β-APP levels, intracellular and extracellular: SK-N-SH cells, 5 or 50 μM, up to 16 hours, vs control, no cellular toxicity (LDH), FIG. 4/5; for intracellular β-APP level: donepezil treatment, FIG. 2
Method: Acad. Sci. USA 98 (13):7605-7610. The methodology of Shaw et al. for carrying out these tests is summarized as follows:
as §2
Lysate preparation: At each time point, the spent medium was collected and stored at −70 C for later analysis of secretory β-APP levels. Cell lysates were prepared as reported previously (Lahiri et al. (1997) Effects of Cholinesterase Inhibitors on the Secretion of Beta-Amyloid Precursor Protein in Cell Cultures, Ann. N.Y Acad. Sci. 826:416-421; and Lahiri et al. (1998) The Secretion of Amyloid Beta-Peptides is Inhibited in the Tacrine-Treated Human Neuroblastoma Cells, Mol. Brain Res. 62:131-140). Protein levels of the supernatant were analyzed by the Bradford protein assay (BioRad, Mellville, N.Y.).
Western Blot: Fifteen μg of protein from each sample was loaded onto a 10% NuPAGE Bis-Tris gel in 1× NuPAGE MOPS SDS running buffer (NOVEX, San Diego, Calif.) and the proteins separated at 200 V for 45 minutes. The gels were then transferred onto nitrocellulose at 25 V for 1.5 hours. Non-specific binding was blocked, and each blot was probed for 2 hours with either 22C11 anti-β-APP N-terminal antibody (2.5 μg/mL, Boehringer Mannheim, Indianapolis, Ind.) or anti-activated ERK antibody (25 ng/mL, Promega, Madison, Wis.). Anti-mouse IgG- or anti-rabbit IgG, conjugated to horse radish peroxidase, were used as secondary antibodies. Equivalent loading of samples was determined by Ponceau S staining (Sigma, St. Louis, Mo.). Densimetric quantification of the chemiluminescence of blots was undertaken by using a […] and NIH-IMAGE (version 4.1).

[7] = i.p. administration to rodents, cholinergic over-stimulation symptoms
Description: This is a classical central (i.e., brain) cholinergic over-stimulation (overdrive) effect.

Aβ [8] = test: Preclinical studies, Aβ levels in nerve cells; type: cell-based, rat; conditions: for reduction of Aβ levels in nerve cells: versus controls
β-APP [9] = test: β-APP levels in adult rats after three weeks of daily administration; type: in vivo, rat; conditions: daily for three weeks, metrifonate 80 mg/kg, tacrine 3 mg/kg, data not shown
Method: The levels of β-APP were measured by 22C11 (epitope APP 66-81).

BChE = target: T2, BChE (Homo sapiens, UniProt P06276); test: BChE inhibition IC50 (RBC/plasma and brain); type: biochemical
T2 construct: (−)-Phenserine (RBC/plasma); from tissue; host or cells: plasma (RBC/plasma rows); brain (Brain rows)
T2 sequence (P06276 29-602, species assumed): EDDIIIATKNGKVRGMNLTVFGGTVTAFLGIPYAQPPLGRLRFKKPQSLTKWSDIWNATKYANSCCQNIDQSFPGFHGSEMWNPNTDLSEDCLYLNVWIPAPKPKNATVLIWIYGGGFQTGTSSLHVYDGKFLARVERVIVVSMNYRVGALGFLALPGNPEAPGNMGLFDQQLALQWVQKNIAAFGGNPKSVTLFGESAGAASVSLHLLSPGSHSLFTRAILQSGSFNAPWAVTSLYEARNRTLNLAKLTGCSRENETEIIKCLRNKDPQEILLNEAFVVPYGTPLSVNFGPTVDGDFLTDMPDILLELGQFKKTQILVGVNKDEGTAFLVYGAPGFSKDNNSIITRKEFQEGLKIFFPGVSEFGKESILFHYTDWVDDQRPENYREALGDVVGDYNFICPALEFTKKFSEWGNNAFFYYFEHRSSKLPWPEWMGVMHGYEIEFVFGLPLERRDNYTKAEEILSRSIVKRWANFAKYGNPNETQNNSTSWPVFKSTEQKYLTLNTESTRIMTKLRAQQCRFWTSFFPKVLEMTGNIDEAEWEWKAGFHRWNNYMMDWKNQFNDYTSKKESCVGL

AChE [10] = target: T3, AChE (Homo sapiens, UniProt P22303); test: biochemical; conditions: IC50 Value AChE, Brain
T3 construct: other: Brain
T3 sequence (P22303 whole entry): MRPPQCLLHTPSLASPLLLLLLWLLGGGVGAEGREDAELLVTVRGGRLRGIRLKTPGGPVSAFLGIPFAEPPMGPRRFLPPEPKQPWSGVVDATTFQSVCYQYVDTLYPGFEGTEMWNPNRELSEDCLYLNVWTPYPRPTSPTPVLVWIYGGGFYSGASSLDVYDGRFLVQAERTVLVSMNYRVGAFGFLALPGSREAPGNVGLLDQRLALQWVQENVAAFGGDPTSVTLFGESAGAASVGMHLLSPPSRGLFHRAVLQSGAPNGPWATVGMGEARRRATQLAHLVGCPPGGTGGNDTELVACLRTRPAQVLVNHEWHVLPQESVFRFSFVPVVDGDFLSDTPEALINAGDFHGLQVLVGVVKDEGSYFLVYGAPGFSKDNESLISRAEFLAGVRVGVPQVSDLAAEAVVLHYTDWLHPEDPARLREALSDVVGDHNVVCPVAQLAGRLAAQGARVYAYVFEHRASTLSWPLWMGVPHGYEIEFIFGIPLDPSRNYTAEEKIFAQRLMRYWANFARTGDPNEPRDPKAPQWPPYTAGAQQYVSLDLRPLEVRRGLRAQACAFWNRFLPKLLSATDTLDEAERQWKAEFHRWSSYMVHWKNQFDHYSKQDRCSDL
Description: as §1

β-APP [11] = test: Preclinical studies, β-APP levels; type: cell-based, rat; conditions: versus controls
β-APP [12] = test: CSF levels of β-APP in naive and forebrain-lesioned rats; type: in vivo, rat; conditions: for CSF levels of β-APP: vs untreated controls, FIG. 6
Method: Lesions were induced with […] N-methyl-D-aspartic acid (50 nMol) (64-68).

AChE [13] = target: T4, AChE (Rattus norvegicus, UniProt P37136); test: In vivo AChE inhibition in plasma after i.v. administration; set-up: species or system Fischer-344 rats; conditions: iv, 1 mg/kg i.v.
T4 construct: Samples of plasma were removed to measure untreated levels of AChE activity; from tissue; host or cells: plasma of Fischer-344 rats
T4 sequence (P37136 32-614): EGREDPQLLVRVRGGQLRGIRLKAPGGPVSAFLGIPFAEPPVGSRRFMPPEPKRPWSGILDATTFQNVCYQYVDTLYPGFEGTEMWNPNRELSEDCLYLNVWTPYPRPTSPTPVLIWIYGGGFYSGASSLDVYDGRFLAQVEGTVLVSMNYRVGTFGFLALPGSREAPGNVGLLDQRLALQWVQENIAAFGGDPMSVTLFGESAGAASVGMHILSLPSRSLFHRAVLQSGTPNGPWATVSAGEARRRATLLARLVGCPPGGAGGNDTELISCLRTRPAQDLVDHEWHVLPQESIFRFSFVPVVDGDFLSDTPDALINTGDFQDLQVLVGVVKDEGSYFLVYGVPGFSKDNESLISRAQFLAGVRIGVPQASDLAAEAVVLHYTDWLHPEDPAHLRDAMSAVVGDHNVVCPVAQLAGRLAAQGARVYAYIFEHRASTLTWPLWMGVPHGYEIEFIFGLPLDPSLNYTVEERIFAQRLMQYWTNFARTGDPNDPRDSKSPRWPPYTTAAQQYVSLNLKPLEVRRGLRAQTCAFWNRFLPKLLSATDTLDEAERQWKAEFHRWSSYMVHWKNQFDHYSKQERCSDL
Method: In this experiment, three-month-old male Fischer-344 rats were anesthetized with halothane. PE 50 catheters, filled with heparinized isotonic saline, were tied into their right femoral artery and vein. Animals then were restrained with a plaster cast that enabled them to move their head and forequarters only and were allowed to recover from anesthesia in a temperature-controlled enclosure. Samples of plasma were removed to measure untreated levels of AChE activity. At 90 minutes after surgery, hexamethonium bromide (5 mg/kg) was administered intraperitoneally, followed by subcutaneous injection of atropine methyl bromide (4 mg/kg) 10 minutes later. […] Both were formulated in a manner consistent for intravenous bolus injection. Plasma samples were removed and immediately frozen at −70° C., just prior to intravenous administration of the inhibitors and at times between 2 minutes and 8 hours.

[14] = extracellular β-APP levels, read-out: IC50 for β-APP secretion
[15] = intracellular β-APP levels, read-out: IC50 for intracellular β-APP
[16] = human neuroblastoma cells, 2 μM, 10 μM and 50 μM (text: 50 μM), FIG. 3

T1 sequence (P22303 32-617 isoform P22303-2 limits assumed): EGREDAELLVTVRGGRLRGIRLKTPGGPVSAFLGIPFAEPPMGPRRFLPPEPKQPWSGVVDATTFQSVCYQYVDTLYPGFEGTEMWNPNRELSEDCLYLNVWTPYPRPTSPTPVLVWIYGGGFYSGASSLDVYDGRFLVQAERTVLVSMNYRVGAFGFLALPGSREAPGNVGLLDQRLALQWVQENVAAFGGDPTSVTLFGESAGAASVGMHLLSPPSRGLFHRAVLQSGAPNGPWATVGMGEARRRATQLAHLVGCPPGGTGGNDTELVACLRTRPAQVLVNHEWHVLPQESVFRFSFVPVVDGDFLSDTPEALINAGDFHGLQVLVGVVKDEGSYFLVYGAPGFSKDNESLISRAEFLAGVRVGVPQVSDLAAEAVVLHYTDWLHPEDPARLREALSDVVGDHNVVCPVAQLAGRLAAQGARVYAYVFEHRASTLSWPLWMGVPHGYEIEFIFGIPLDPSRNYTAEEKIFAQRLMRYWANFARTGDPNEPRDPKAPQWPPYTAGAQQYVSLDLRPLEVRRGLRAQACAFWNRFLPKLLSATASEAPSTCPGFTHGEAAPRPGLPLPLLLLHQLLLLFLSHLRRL

For `CN1CC[C@]2(C)c3cc(OC(=O)Nc4ccccc4)ccc3N(C)C12` (single isomer, unassigned; (+)) [(+)-phenserine], the “activity as an inhibitor of human acetylcholinesterase” value [1] is listed as “far less active”, the “efficacy test level (NPI, CGIC, ADAS-cog, MMSE, CANTAB, ADCS-ADL) vs First Level” value ([2]; 50 mg bid with 5 mg bid (−)-phenserine) is listed as “maintain a level at least as great as the First Level” and the “efficacy test level (NPI, CGIC, ADAS-cog, MMSE, CANTAB, ADCS-ADL) vs First Level” value ([2]; 50 mg bid with 6-12 mg per day rivastigmine) is listed as “maintain a level at least as great as the First Level”. For the same compound, the IC50 [3] was over 25000 nM, the “production of β-APP” value (β-APP [4]; coadministered with donepezil) was “reduce the production of β-APP” and the “production of β-APP” value (β-APP [4]; coadministered with eptastigmine) was “reduce the production of β-APP”. The “production of β-APP” value (β-APP [4]; coadministered with galantamine) was “reduce the production of β-APP”, the “production of β-APP” value (β-APP [4]; coadministered with huperzine A) was “reduce the production of β-APP” and the “production of β-APP” value (β-APP [4]; coadministered with rivastigmine) was “reduce the production of β-APP”. The “secreted levels of Aβ” value (Aβ [5]) was “significantly lowered”, the “secreted levels of Aβ” value (Aβ [5]; listed as (+)-Phenserine) was “capable of reducing the β-APP and Aβ protein levels” and the “β-APP levels, intracellular and extracellular” value (β-APP [6]) was “significantly lowered”. For the same compound, the “β-APP levels, intracellular and extracellular” value (β-APP [6]; listed as (+)-Phenserine) was “capable of reducing the β-APP and Aβ protein levels”, the IC50 (β-APP [6]; [14]) was about 670 nM and the IC50 (β-APP [6]; [15]) was about 1100 nM. The observed symptoms ([7]; 20 mg/kg i.p.) was “entirely without symptoms” and the Aβ levels (Aβ [8]; combined with (−)-phenserine) was “further reduced”.
With `Nc1c2c(nc3ccccc13)CCCC2` [Tacrine] the “secreted β-APP levels” value (β-APP [9]) was “did not alter”.
In the case of `COc1cc2c(cc1OC)C(=O)C(CC1CCN(Cc3ccccc3)CC1)C2` (centres unmarked) [donepezil, reference compound], the “intracellular β-APP level” value (β-APP [6]) is reported as “decreased intracellular levels” and the “intracellular β-APP level” value (β-APP [6]; listed as Donepezil) is reported as “reduces intracellular β-APP”.
For `CN1CC[C@@]2(C)c3cc(OC(=O)Nc4ccccc4)ccc3N(C)C12` (single isomer, unassigned; (-)) [(−)-phenserine], the IC50 (BChE; Brain) was 2500 ± 1100 nM, the IC50 (BChE; RBC/plasma) was 1560 ± 270 nM and the IC50 (AChE [10]) was 36 ± 3 nM. For the same compound, the “levels of β-APP” value (β-APP [11]) was “similarly reduced”, the “extracellular β-APP in the CSF, dose dependence of the decrease” value (β-APP [12]; adult rats, up to very high doses) was “reaches a plateau that is not further decreased even at very high doses” and the “CSF levels of β-APP” value (β-APP [12]; naive rats, 2.5 mg/kg, 2.5 mg/kg) was “lowered β-APP levels; also recorded: reduce β-APP levels”. The “CSF levels of β-APP” value (β-APP [12]; rats with cholinergic forebrain (nucleus basalis of Meynert) lesions) was “lowered β-APP levels”, the inhibition at 1 mg/kg (AChE [13]; at 5 minutes, read-out: maximum AChE inhibition) was 73.5% and the inhibition at 1 mg/kg (AChE [13]; at 8 hours, read-out: AChE inhibition) was 43%. For the same compound, the “secreted levels of Aβ” value (Aβ [5]) was “significantly lowered; also recorded: reduces β-APP and Aβ levels in a concentration-dependent manner; also recorded: substantially reduced from that of the controls especially at 16 hours”, the “β-APP levels, intracellular and extracellular” value (β-APP [6]) was “significantly lowered; also recorded: reduces β-APP and Aβ levels in a concentration-dependent manner; also recorded: decreased the β-APP levels” and the IC50 (β-APP [6]; [14]) was about 670 nM. The IC50 (β-APP [6]; intracellular β-APP levels, read-out: IC50 for inhibition of β-APP, intracellular) was about 1100 nM, the IC50 (β-APP [6]; [15]) was about 1100 nM and the “duration of fine tremor” value ([7]; 5 mg/kg i.p.) was “about 1 hour”. For the same compound, the observed symptoms ([7]; 5 mg/kg i.p.) was “a fine tremor was observed”, the observed symptoms ([7]; 7.5 mg/kg i.p.) was “Tremor, together with symptoms of peripheral over-stimulation (specifically, lacrimation and salivation)” and the observed symptoms ([7]; 20 mg/kg i.p.) was “incapacitated by severe tremor and peripheral side effects”. The “animals killed when moribund” value ([7]; 20 mg/kg i.p., of 5 treated animals) was 2, the “reduction of Aβ levels in nerve cells” value (Aβ [8]; after 8 hours) was 14% and the “reduction of Aβ levels in nerve cells” value (Aβ [8]; after 16 hours) was 31%.
For `CCN(C)C(=O)Oc1cccc([C@H](C)N(C)C)c1` [rivastigmine, reference compound], the Aβ peptide levels (Aβ [5]; [16]) was “No statistically significant change; also recorded: without a statistically significant change” and the “secreted β-APP” value (β-APP [6]; [16]) was “elevated secretion of β-APP; also recorded: elevates the levels of secreted β-APP”.
In the case of `COP(=O)(OC)C(O)C(Cl)(Cl)Cl` (centres unmarked) [Metrifonate], the “secreted β-APP levels” value (β-APP [9]) is reported as “did not alter”.

From patent US20050182044A1, “Combinatorial therapy with an acetylcholinesterase inhibitor and (3aR)-1,3a,8-trimethyl-1,2,3,3a,8,8a-hexahydropyrrolo[2,3,-b]indol-5-yl phenylcarbamate” (priority 2004, published 2005)
